Data: patent publication US20250257077A1, “BRIDGED BICYCLIC HETEROCYCLOALKYL PYRIDO-[3,4-d]PYRIDAZINE AMINE DERIVATIVES USEFUL AS NLRP3 INHIBITORS” (Ventus Therapeutics U.S., Inc., priority 2022, published 2025)
≈ marks a conversion by molar mass, not a printed value. Read-outs that look alike come from different tables or passages of the source.

Key:
human NLRP3 = target: T1, human NLRP3 (Homo sapiens, UniProt Q96P20); experiment: Human Whole Blood (hWB) NLRP3 Assay; assay type: cell-based; conditions: LPS priming, ATP activation, IL-1β levels
T1 construct: Human whole blood is drawn from healthy volunteers after obtaining written informed consent; from tissue
T1 sequence (Q96P20 whole entry): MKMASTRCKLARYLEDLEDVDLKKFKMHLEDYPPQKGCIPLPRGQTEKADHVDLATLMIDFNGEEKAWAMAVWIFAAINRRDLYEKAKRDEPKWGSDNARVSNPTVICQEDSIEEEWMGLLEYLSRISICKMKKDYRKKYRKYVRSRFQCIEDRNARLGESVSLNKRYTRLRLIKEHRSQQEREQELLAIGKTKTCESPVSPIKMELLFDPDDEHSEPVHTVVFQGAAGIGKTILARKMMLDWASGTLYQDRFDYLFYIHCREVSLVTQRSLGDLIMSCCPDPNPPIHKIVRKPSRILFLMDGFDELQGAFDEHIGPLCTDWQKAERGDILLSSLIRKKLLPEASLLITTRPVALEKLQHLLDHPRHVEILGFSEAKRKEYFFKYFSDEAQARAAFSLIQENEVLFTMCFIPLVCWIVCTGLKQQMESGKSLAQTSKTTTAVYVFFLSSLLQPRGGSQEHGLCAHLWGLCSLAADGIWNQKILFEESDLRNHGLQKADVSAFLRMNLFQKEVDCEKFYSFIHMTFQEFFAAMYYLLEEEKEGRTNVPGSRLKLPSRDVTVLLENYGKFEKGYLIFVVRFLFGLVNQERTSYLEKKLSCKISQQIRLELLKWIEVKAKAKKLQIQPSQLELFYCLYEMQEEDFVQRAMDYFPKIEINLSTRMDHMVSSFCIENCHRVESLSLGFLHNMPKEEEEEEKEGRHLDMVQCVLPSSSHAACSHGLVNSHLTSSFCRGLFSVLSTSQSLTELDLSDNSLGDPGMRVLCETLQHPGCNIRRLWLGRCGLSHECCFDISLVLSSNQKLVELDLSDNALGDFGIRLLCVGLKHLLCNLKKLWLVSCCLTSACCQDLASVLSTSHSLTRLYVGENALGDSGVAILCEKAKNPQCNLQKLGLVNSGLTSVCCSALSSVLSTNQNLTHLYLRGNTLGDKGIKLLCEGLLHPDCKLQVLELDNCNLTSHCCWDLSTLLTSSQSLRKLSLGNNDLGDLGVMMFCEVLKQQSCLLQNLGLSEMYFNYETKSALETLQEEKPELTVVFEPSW
Method: (ii) Human Whole Blood (hWB) NLRP3 Assay
Human whole blood is drawn from healthy volunteers after obtaining written informed consent. Heparin lithium coated tubes are used to collect blood from volunteers. Blood samples are distributed on 96 well plates using 90 μl per well. Priming is performed by adding 5 μl of LPS (026: B6; Sigma L-2654) at a final concentration of 1 μg/ml for 4.5 hours in a humidified incubator with 37° C. 5% CO2. Thirty minutes prior to NLRP3 activation, 5 μl of a 20× compound solution or vehicle (2% dimethylsulfoxide (DMSO)) is added to each well and plates were incubated on a shaker (450 rpm) in a humidified incubator with 37° C., 5% CO2. Activation is then performed by adding 3.3 μl of a 31× ATP solution per well. At the end of the 30 minutes stimulation, the plates are centrifuged (800 g, 10 min, room temperature) and the plasma from each well is frozen at −80° C. IL-1β levels in the supernatant were analyzed using a mesoscale discovery assay (MSD K151TUK) according to the manufacturers’ instructions.

[1] = Mouse Hepatocyte Stability Assay; assay type: in vitro ADME; conditions: mouse hepatocytes, 37° C.; read-out: Hep (mouse) (t½ min)
Method: (§1) (v) Mouse and Human Hepatocyte Stability Assays
(§2) A hepatocyte stability assay is a laboratory-based method used to determine the metabolic stability of a compound in hepatocytes (liver cells). This assay provides valuable information about how quickly a drug is metabolized in the liver and can be used to assess its potential effectiveness and safety in drug discovery.
(§3) In the assay, cither human or mouse hepatocytes are incubated with the test compound at a controlled temperature of 37° C., for different time periods (e.g., 5, 15, 30, 60, and 120 minutes). At each time point during the incubation, samples are taken, the reaction is terminated, and the amount of test compound remaining analyzed using LC-MS/MS to monitor the disappearance of the test compound over time (Gradient). […] See, e.g., Coe et al., Methods in Pharmacology & Toxicology (2008) 151.

[2] = Human Hepatocyte Stability Assay; assay type: in vitro ADME; conditions: human hepatocytes, 37° C.; read-out: Hep (human) (t½ min)
Method: as §1, §2, §3

[3] = Brain Levels (Kp and Kpu,u); assay type: in vivo, CDI mice; conditions: for Kp at 24 h: mice dosed at 20 mpk PO, whole brain AUC over 24 h divided by plasma AUC; for Kp: oral, 20 mpk
Method: (iv) Brain Levels (Kp and Kpu,u)—NLRP3
The in vivo total brain to plasma ratio was assessed in CDI mice after oral administration of the compound. Blood was collected at several timepoints up to 24 h, and transferred into plastic micro centrifuge tubes with EDTA-K2 as anticoagulant. Blood samples were centrifuged at 4000 g for 5 minutes at 4° C., to obtain plasma, then immediately frozen and stored at −75±15° C., prior to analysis. Animals were terminally anaesthetized with a rising concentration of CO2 gas at about 1 minute. At selected timepoints, whole brains were removed from the skull, rinsed in cold PBS to remove blood, dried with clean gauze, then frozen in liquid nitrogen and kept at −75±15° C. before analysis. At the time of analysis, brain samples were homogenized with PBS by tissue weight (g) to PBS volume (mL) ratio 1:3.
Plasma and brain drug levels were quantified by LC/MS/MS on an AB Sciex Triple Quad 5500+instrument, after separation on a HALO 160 A ES-C18, 2.7 μm 2.1×50 mm column. Quantitation was performed using a calibration curve prepared in blank plasma or blank brain homogenate. The software WinNonlin (Phoenix™) was used for pharmacokinetic analysis from the concentrations versus time data, including the AUCinf and AUClast. The Kp ratio (total brain concentration over total plasma concentration) was calculated as (AUCtot,br)/(AUCtot,pl).
The unbound brain exposure was assessed as Kpuu, which is the free brain/free plasma concentration ratio (Cu,bt/Cu,pl). The Cu,br/Cu,pl ratios were obtained from in vivo total brain to plasma ratios (Ctot,br/Ctot,pl) by using in vitro determined Fu,br and Fu,pl.
Plasma protein binding and brain homogenate protein binding were measured by equilibrium dialysis in a HTDialysis plate. The dialysis membranes were soaked in ultrapure water for 60 minutes to separate strips, then in 20% ethanol for 20 minutes, finally in dialysis buffer for 20 minutes. The dialysis set up was assembled according to the manufacturer's instruction. Each cell received 150 μL of plasma or brain homogenate spiked with 1 mM of compound, and dialyzed against an equal volume of dialysis buffer (PBS). The dialysis plate was sealed and incubated in an incubator at 37° C. with 5% CO2 at 100 rpm for 6 hours. At the end of incubation, compound concentration was measured in both chambers by LC-MS/MS on a Triple Quad™ 5500 from AB Inc after separation on a XSelect Hss T3.2.5μ (2.1×30 mm) column. Free fraction (Fu) was calculated as (Peak Area Ratio buffer chamber/Peak Area Ratio plasma chamber). Kpuu=(AUCtot,br×Fu,br)/([…])
The Kpu,u was then calculated upon correcting this kp value with mouse plasma protein binding and mouse brain homogenates binding.
A Kpu,u value >0.3 is considered brain penetrant, and a Kpu,u value ≤0.3 is not considered brain penetrant. When the Kpu,u value is not determined, the Kp value may be useful as a metric of potential brain penetrance if the Kp value is >0.3.

[4] = Solubility Protocol in Phosphate Buffered Saline (PBS); assay type: physicochemical; conditions: for solubility at 2 h: pH 7.4, aqueous buffer
Method: (vi) Solubility Protocol in Phosphate Buffered Saline (PBS)
The kinetic solubility of test compounds and control compounds was measured in commercial phosphate buffered saline (PBS), pH 7.4 (Wisent, Canada).
Briefly, a stock solution (20 mM DMSO for controls, and 10 mM DMSO for test compounds) was combined with PBS buffer to reach a targeted concentration of 400 μM for controls and 200 μM for test compounds. The spiked-PBS mixtures were then agitated on a VX-2500 multi-tube vortexer (VWR) for 2 hours at room temperature (18° C.). Following agitation, the samples were filtered on a glass fiber filter (1 μm) and the eluates were diluted 400-fold with a mixture of acetonitrile:water (1:1). Solubility determination was then performed against one standard sample prepared in high organic content at the expected top concentration. The lower limit of quantification was arbitrarily set at 1 μM (400-fold dilution of the top concentration) for assay controls, and 0.5 μM for test compounds. On each experimental run, nicardipine and imipramine were assessed as reference compounds for low and high solubility, respectively. All samples were assessed in triplicate and analyzed by LC-MS/MS (using a CTC PAL autosampler, Thermo Accela UPLC, and a Thermo Quantum mass spectrometer) using electrospray ionization against standards prepared in the same matrix

[5] = CDI, mouse, brain (whole brain homogenate) relative to plasma, po, 20 mg/kg
[6] = CDI, mouse, brain (whole brain homogenate) relative to plasma, brain levels, mice
[7] = phosphate buffered saline (PBS), 18 °C, kinetic from dmso stock
[8] = CDI, mouse, brain (whole brain homogenate) relative to plasma, po, 20 mg/kg, Kp corrected with mouse plasma protein binding and mouse brain homogenates binding, 20 mpk PO, read-out: Kpu,u

IC50 (human NLRP3) [µM]	half-life [1] [h]	Compound	further results
1.51		6-(1-(((1R,5S,8s)-3-oxabicyclo[3.2.1]octan-8-yl)amino)pyrido[3,4-d]pyridazin-4-yl)-2-fluoro-3-methylphenol [Compound 15A-regioisomer]	
5		Oc1cc(Cl)ccc1-c1nnc(N[C@H]2C[C@@H]3CC[C@H]2O3)c2cnccc12 (single isomer, unassigned) [Compound 3B*]	
0.27	1.67	Oc1cc(Cl)ccc1-c1nnc(N[C@@H]2C[C@H]3CC[C@@H]2O3)c2cnccc12 (single isomer, unassigned) [Compound 3C*]	
2.42	0.167	Oc1cc(Cl)ccc1-c1nnc(N[C@H]2C[C@H]3CC[C@@H]2O3)c2cnccc12 (single isomer, unassigned) [Compound 3D*]	
0.23	0.95	Cc1ccc(-c2nnc(N[C@@H]3C[C@@H]4CC[C@H]3O4)c3cnccc23)c(O)c1 (single isomer, unassigned) [Compound 7A]	half-life [2]: > 8 h; Kp at 24 h [3, 5]: 0.61
5.3		Cc1ccc(-c2nnc(N[C@H]3C[C@@H]4CC[C@H]3O4)c3cnccc23)c(O)c1 (single isomer, unassigned) [Compound 7B]	
0.11	0.35	Cc1ccc(-c2nnc(N[C@@H]3C[C@H]4CC[C@@H]3O4)c3cnccc23)c(O)c1 (single isomer, unassigned) [Compound 7C]	half-life [2]: 4.67 h; Kp [3, 6]: 0.61
4.66		Cc1ccc(-c2nnc(N[C@H]3C[C@H]4CC[C@@H]3O4)c3cnccc23)c(O)c1 (single isomer, unassigned) [Compound 7D]	
0.27	4.17	Oc1cc(Cl)ccc1-c1nnc(N[C@@H]2C[C@@H]3C[C@H]2CO3)c2cnccc12 (single isomer, unassigned) [Compound 8A]	
0.59	4.67	Oc1cc(Cl)ccc1-c1nnc(N[C@H]2C[C@H]3C[C@@H]2CO3)c2cnccc12 (single isomer, unassigned) [Compound 8B]	solubility kinetic at 2 h ([4]; phosphate buffered saline (PBS), 18 °C, aqueous buffer, kinetic from dmso stock, kinetic solubility, PBS pH 7.4, 2 hours at room temperature): > 300 µM; solubility at 2 h [4, 7]: > 300 µM; Kp [3, 6]: 0.35; Kpu,u [3, 8]: 0.1; Kp at 24 h [3, 5]: 0.35; Kpu,u ([3]; brain levels, unbound, mice): — 0.10
> 50		Oc1cc(Cl)ccc1-c1nnc(N[C@]23CCC(C2)OC3)c2cnccc12 (single isomer, unassigned) [Compound 9A]	
> 50		Oc1cc(Cl)ccc1-c1nnc(N[C@@]23CCC(C2)OC3)c2cnccc12 (single isomer, unassigned) [Compound 9B]	
6.76		Oc1cc(C(F)(F)F)ccc1-c1nnc(N[C@H]2C[C@@H]3CC[C@H]2O3)c2cnccc12 (single isomer, unassigned) [Compound 10B*]	
0.81	2.33	Oc1cc(C(F)(F)F)ccc1-c1nnc(N[C@@H]2C[C@H]3CC[C@@H]2O3)c2cnccc12 (single isomer, unassigned) [Compound 10C*]	half-life [2]: 7.83 h; Kp [3, 6]: 0.48; Kpu,u [3, 8]: 0.21; Kp at 24 h [3, 5]: 0.48; Kpu,u ([3]; brain levels, unbound, mice): 0.21
5.34	8	Oc1cc(C(F)(F)F)ccc1-c1nnc(N[C@H]2C[C@H]3CC[C@@H]2O3)c2cnccc12 (single isomer, unassigned) [Compound 10D*]	half-life [2]: > 8 h
1.39		Oc1cc(Cl)ccc1-c1nnc(N[C@H]2C[C@H]3CC[C@@H](C2)O3)c2cnccc12 [Compound 1A*-r, 2-(4-(((1R,3r,5S)-8-oxabicyclo[3.2.1]octan-3-yl)amino)pyrido[3,4-d]pyridazin-1-yl)-5-chlorophenol]	Sol (PBS) ([4]; kinetic solubility, PBS pH 7.4, 2 hours at room temperature): 3.5 µM; solubility at 2 h [4, 7]: 3.5 µM (≈ 1.34 µg/mL); Kp [3, 6]: 0.047; Kp at 24 h [3, 5]: 0.047
4.12	3.67	Cc1ccc(-c2nnc(N[C@@H]3C[C@H]4CC[C@@H](C3)O4)c3cnccc23)c(O)c1 [Compound 2B*-r, 2-(4-(((1R,3s,5S)-8-oxabicyclo[3.2.1]octan-3-yl)amino)pyrido[3,4-d]pyridazin-1-yl)-5-methylphenol]	
2	3.33	Cc1ccc(-c2nnc(N[C@H]3C[C@H]4CC[C@@H](C3)O4)c3cnccc23)c(O)c1F [Compound 12A*-r, 6-(4-(((1R,3r,5S)-8-oxabicyclo[3.2.1]octan-3-yl)amino)pyrido[3,4-d]pyridazin-1-yl)-2-fluoro-3-methylphenol]	
0.48		Cc1cc(O)c(-c2nnc(N[C@H]3[C@@H]4CC[C@H]3COC4)c3cnccc23)c(F)c1 [Compound 16A, 2-(4-(((1R,5S,8s)-3-oxabicyclo[3.2.1]octan-8-yl)amino)pyrido[3,4-d]pyridazin-1-yl)-3-fluoro-5-methylphenol]	
0.31		Cc1cc(C)c(-c2nnc(N[C@H]3[C@@H]4CC[C@H]3COC4)c3cnccc23)c(O)c1 [Compound 17A, 2-(4-(((1R,5S,8s)-3-oxabicyclo[3.2.1]octan-8-yl)amino)pyrido[3,4-d]pyridazin-1-yl)-3,5-dimethylphenol]	
0.32		N#Cc1ccc(-c2nnc(N[C@H]3[C@@H]4CC[C@H]3COC4)c3cnccc23)c(O)c1 [Compound 18A, 4-(4-(((1R,5S,8s)-3-oxabicyclo[3.2.1]octan-8-yl)amino)pyrido[3,4-d]pyridazin-1-yl)-3-hydroxybenzonitrile]	
